Where two headings read alike, the source gives them in different places.
Assays:
[1] = Drug interaction study with ketoconazole (CYP3A4 and p-glycoprotein inhibitor) in healthy subjects; format: in vivo, human; conditions: 100 mg twice daily with ketoconazole 400 mg once daily
[2] = test system: Gaucher mice (D409V/null); assay: Separate and sequential enzyme and substrate reduction therapy in Gaucher mice; format: in vivo, mouse
Text: Procedures involving animals were reviewed and approved by the Institutional Animal Care and Use Committee (IACUC) at Genzyme Corporation following the guidelines issued by the Association for Assessment and Accreditation of Laboratory Animal Care (AAALAC). […] The study had 6 groups of mice with group A being sacrificed after 2 weeks to provide baseline levels of tissue glucosylceramide. Groups B, C, and D all received recombinant human glucocerebrosidase (Genzyme Corp., Cambridge, Mass.) (10 mg/kg) intravenously via a tail-vein (100 μL) every 2 days for a total of 8 injections. Group B was sacrificed at the end of this regimen (at the same time as group A) to provide enzyme-reduced levels of tissue glucosylceramide. Groups D and E were both fed Formula (I) Hemitartrate (Genzyme Corp., Cambridge, Mass.) as a component of the pellet food diet. The drug was formulated at 0.075% (w/w) in standard 5053 mouse chow (TestDiet, Richmond, Ind.) and provided ad libitum. […] Group F received no treatment and was sacrificed along with groups C, D and E 12 weeks after the start of the study. Food consumption and mouse weights were monitored three times per week to determine drug intake and the potential impact of the drug on overall health. Animals were killed by carbon dioxide inhalation and their tissues harvested immediately. Half of each tissue was snap frozen on dry ice and stored at −80° C. until ready for further processing. The other half was processed for histological analysis.
Glucosylceramide levels were quantified by mass spectrometry as described previously (see K. McEachern, et al., J. Gene. Med. 8 (2006) 719-729; T. Doering, J. Biol. Chem. 274 (1999) 11038-11045, the entire teachings of both are incorporated herein by reference). A known mass of tissue was homogenized in 2:1 (v/v) chloroform:methanol and incubated at 37° C. for 15 min. Samples were centrifuged and the supernatants were extracted with 0.2 volumes of water overnight at 4° C. The samples were centrifuged, the aqueous phase was discarded, and the organic phase was dried down to a film under nitrogen. For electrospray ionization mass spectrometry (ESI/MS) analysis, tissue samples were reconstituted to the equivalent of […] original tissue weight in 1 ml chloroform:methanol (2:1, v/v) and vortexed for 5 min. Aliquots (40 μL) of each sample were delivered to Waters total recovery vials and 50 μL of a 10 μg/mL d3-C16-GL-1 internal standard (Matreya, Inc., Pleasant Gap, Pa.) was added. Samples were dried under nitrogen and reconstituted with 200 μL of 1:4 (v/v) DMSO:methanol. ESI/MS analysis of glucosylceramides of different carbon chain lengths was performed on a Waters alliance HPLC (Separation Module 2695) coupled to a Micromass Quattro Micro system equipped with an electrospray ion source. Lipid extract samples (20 μL) were injected onto a C8 column ([…] i.d; Phenomenex, Torrance, Calif.) at 45° C. and eluted with a gradient of 50 to 100% acetonitrile (2 mM ammonium acetate, 0.1% formic acid) at 0.5 mL/min. The first 0.5 min. was held at 50% organic and then quickly switched to 100% for the final 3.5 min. The source temperature was held constant at 150° C. and nitrogen was used as the desolvation gas at a flow rate of 670 L/h. The capillary voltage was maintained at 3.80 KV with a cone voltage of 23 V, while the dwell time for each ion species was 100 ms. Spectra were acquired by the MRM mode to monitor eight dominant isoforms (C16:0, C18:0, C20:0, C22:1, C22:0, C22:1-OH, C24:1, and C24:0). Quantitation of glucosylceramide was based on the sum of these eight isoforms relative to the internal standard, with a calibration curve ranging from 0.1 to 10 μg/mL.
For histological analysis, tissues were fixed in zinc formalin (Electron Microscopy Sciences, Hatfield, Pa.) at room temperature for 24 h, then stored in PBS at 4° C. until ready for further processing. […]

[3] = Hygroscopicity of salts and free base; format: physicochemical
GM1 in K562 cells = assay: Flow cytometry of cell surface GM1 in intact cells; format: cell-based; conditions: for IC50: Homo sapiens
Text: Since […] the first and rate-limiting step in the biosynthesis of glycosphingolipids, a flow cytometry assay that measured cell surface levels of GM 1 and GM3 was used to indirectly assess the activity of the inhibitor in intact cells.

[4] = target: glycogen debranching enzyme (α-1,6-glucosidase) (Homo sapiens, UniProt P35573); assay: Glycogen debranching enzyme cell free assay; format: biochemical
Experimental: The specificity of Formula (I) Hemitartrate was evaluated in a series of in vitro cell-based and cell-free assays. The intestinal glycosidase enzymes were assayed in rat tissue homogenates (see U. Andersson, et al., Biochem. Pharm. 59 (2000) 821-829, the entire teachings of which are incorporated herein by reference), and the glycogen debranching enzyme was assayed in a cell free assay as described (see U. Andersson, et al., Biochem. Pharm. 67 (2004) 697-705, the entire teachings of which are incorporated herein by reference).

Aqueous solubility = format: physicochemical; conditions: in water
[5] = group D: 2 weeks enzyme, then 150 mg/kg/day in food for 10 weeks
[6] = group E: 150 mg/kg/day in food alone for 12 weeks

Sequence of glycogen debranching enzyme (α-1,6-glucosidase) (P35573 whole entry, species assumed): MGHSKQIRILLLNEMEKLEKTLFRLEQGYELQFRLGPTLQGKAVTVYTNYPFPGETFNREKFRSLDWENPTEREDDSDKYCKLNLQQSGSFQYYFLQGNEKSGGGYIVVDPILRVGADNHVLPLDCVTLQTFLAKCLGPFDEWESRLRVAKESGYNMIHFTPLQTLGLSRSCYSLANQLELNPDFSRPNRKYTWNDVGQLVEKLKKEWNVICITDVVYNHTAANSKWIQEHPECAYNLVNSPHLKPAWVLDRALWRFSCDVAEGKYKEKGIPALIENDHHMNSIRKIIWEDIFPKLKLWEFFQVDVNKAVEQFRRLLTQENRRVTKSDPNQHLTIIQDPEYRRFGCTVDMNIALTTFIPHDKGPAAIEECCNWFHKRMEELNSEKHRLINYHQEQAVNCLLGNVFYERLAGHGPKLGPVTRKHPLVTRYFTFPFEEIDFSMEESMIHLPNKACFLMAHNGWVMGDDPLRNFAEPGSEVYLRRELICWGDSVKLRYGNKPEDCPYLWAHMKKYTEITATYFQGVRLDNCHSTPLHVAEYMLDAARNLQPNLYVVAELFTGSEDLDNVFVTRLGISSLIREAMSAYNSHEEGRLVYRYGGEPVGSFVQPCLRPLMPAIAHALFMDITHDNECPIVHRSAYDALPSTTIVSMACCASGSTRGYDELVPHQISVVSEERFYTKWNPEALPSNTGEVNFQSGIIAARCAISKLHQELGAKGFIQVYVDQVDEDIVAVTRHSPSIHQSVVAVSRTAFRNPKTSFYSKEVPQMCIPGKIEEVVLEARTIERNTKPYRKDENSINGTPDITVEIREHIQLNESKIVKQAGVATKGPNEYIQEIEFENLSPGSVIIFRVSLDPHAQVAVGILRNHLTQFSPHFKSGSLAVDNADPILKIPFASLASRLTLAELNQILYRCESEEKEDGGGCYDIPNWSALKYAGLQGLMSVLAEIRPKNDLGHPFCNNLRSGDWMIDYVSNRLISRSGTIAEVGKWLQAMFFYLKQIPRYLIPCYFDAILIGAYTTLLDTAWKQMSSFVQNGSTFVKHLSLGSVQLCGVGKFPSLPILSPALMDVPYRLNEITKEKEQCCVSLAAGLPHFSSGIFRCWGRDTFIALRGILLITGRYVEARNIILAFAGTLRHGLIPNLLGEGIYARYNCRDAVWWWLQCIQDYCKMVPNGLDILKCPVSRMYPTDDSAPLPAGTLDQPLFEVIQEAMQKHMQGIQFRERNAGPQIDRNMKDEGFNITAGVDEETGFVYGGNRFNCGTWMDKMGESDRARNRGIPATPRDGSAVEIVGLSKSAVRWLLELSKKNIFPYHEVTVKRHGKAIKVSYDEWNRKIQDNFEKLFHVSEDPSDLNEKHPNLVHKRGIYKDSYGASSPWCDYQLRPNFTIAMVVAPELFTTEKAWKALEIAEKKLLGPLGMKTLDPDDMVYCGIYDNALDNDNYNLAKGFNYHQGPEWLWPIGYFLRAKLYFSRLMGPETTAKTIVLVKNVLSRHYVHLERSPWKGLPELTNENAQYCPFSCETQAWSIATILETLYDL

SMILES: CCCCCCCC(=O)N[C@H](CN1CCCC1)[C@H](O)c1ccc2c(c1)OCCO2 [Formula (I) Hemitartrate]
- increase in exposure of the free base in plasma at steady state with ketoconazole [1]: 4 fold
- liver histopathology, CD68-positive Gaucher cells ([2]; 2 weeks enzyme, then substrate reduction therapy for 10 weeks): increase in Gaucher cells was negated
- weight gain versus regular chow ([2]; chow containing 150 mg/kg/day): no discernible differences in weight gain
- liver histopathology, CD68-positive Gaucher cells ([2]; drug alone for 12 weeks): reduced accumulation of the substrate
- lung GL1 levels versus untreated controls (F) ([2]; group D: 2 weeks enzyme, then 150 mg/kg/day in chow for 10 weeks): significantly lower
- liver GL1 levels versus untreated controls (F) [2, 5]: significantly lower
- splenic GL1 levels versus untreated control (F) [2, 5]: significantly lower
- liver GL-1 levels versus untreated, age-matched controls (F) [2, 6]: the difference was not significant
- pulmonary GL1 levels versus untreated controls (F) [2, 6]: effective in lowering pulmonary GL1 levels
- splenic GL1 levels versus untreated controls (F) [2, 6]: the difference was not significant
- Hygroscopicity (40° C./75% RH) ([3]; 40° C./75% RH): None
- hygroscopicity of the solid salt ([3]; salt screen, Example 1, listed as hemitartrate (1 salt: 2 Formula I)): non-hygroscopic
- IC50 (GM1 in K562 cells; K562 cells, 72 h incubation, printed range 14-34 nM, read-out: mean IC50 for inhibiting the cell surface presentation of GM1): 24 nM
- IC50 (GM1 in K562 cells; Table 8, GM1 in K562 cells, read-out: Substrate inhibition potency (in vitro IC50)): ~24 nM
- cellular toxicity (GM1 in K562 cells; K562 cells, up to the highest dose (0.6-1000 nM), 72 h): No overt cellular toxicity
- inhibition of cytosolic debranching enzyme (α-1,6-glucosidase) ([4]; concentrations up to 2500 μM): No detectable inhibition
- IC50 ([4]; read-out: Enzyme specificities, IC50: Glycogen debranching enzyme): > 2.5 mM
- Aqueous solubility (Aqueous solubility): >216 mg/mL
- Aqueous solubility (Aqueous solubility; listed as Formula I Hemitartrate): over 300 mg/mL

Reference: patent publication US10888547B2, “Amorphous and a crystalline form of genz 112638 hemitartrate as inhibitor of glucosylceramide synthase” (Genzyme Corporation, priority 2009, dated 2021)
